Laboratory results reported in patent US20230098772A1, “ADVANCED MICROBIOME THERAPEUTICS ENGINEERED TO PRODUCE SEROTONIN IN VIVO” (DANMARKS TEKNISKE UNIVERSITET, priority 2019, published 2023).

Key:
[1] = tested on: mice; assay: Forced Swim Test after 21 days treatment, comparison with fluoxetine; assay type: in vivo, mice (C57BL/6); conditions: oN14 10^9 cells oral gavage, fluoxetine 10 mg/kg I.P.
Method: 9.1.2 Forced Swim Test: Each mouse was placed in clear cylindrical tanks (30 cm height×20 cm) with 15 cm of water at 23-25° C. for 6 minutes and recorded, as described by Ferguson (2001). Mice were then towel dried and placed under a heat lamp to dry to prevent hypothermia and then placed back in their original cage. Recordings were de-identified and a blinded observer, scored recordings for the time spent immobile during the last 4 minutes of the 6-minute test, as described by Can et al., (2012).
10.1.1 Administration: as described for oral administration in 6.1.1, but with the following modifications: The mice were administered sterile PBS only (PBS) or freshly-grown 10^9 cells of E. coli Nissle strain designated oN14 (E. coli Nissle strain oN comprising pMUT14-ser) in sterile PBS (oN14) by oral gavage. Additionally, the mice were administered a 200 μl intraperitoneal (I.P.) injection of saline or the SSRI, fluoxetine at 10 mg/kg body weight in saline. The mice received the oral and IP administered co-treatments every 24 hrs at the same time of day for 21 days. Accordingly, the four mice treatment groups received: IP: saline/Gavage: PBS (negative control); IP: Fluoxetine/Gavage: PBS (SSRI positive comparator), IP: saline/Gavage: oN14 (oN14 positive comparator); and IP: Fluoxetine/Gavage: oN14 (positive combination comparator). […]

[2] = tested on: mice; assay: Open Field Test after 21 days treatment, comparison with fluoxetine; assay type: in vivo, mice (C57BL/6); conditions: oN14 10^9 cells oral gavage, fluoxetine 10 mg/kg I.P.
Method: 9.1.3 Open Field Test: Each mouse was placed in a white, open-roof, well lite, 50 cm (length)×50 cm (width)×38 cm (height) chamber and recorded for 10 minutes following previously described methods (Spohn, S. N. et al., 2016). Mice were then placed back into their original cage. Fecal pellets produced during the 10-minute test were counted. Recordings were then post processed and analyzed using BehaviorCloud as previously described (Spohn, S. N. et al., 2016). Mouse tracking software recorded total path of movement of each mouse, total distance traveled, time spent in the inner zone defined as the […] and outer zone defined as the outer 10 cm border closest to the walls, number of times entering the inner zone, and distance traveled within the inner zone.
10.1.1 Administration: as described for oral administration in 6.1.1, but with the following modifications: The mice were administered sterile PBS only (PBS) or freshly-grown 10^9 cells of E. coli Nissle strain designated oN14 (E. coli Nissle strain oN comprising pMUT14-ser) in sterile PBS (oN14) by oral gavage. Additionally, the mice were administered a 200 μl intraperitoneal (I.P.) injection of saline or the SSRI, fluoxetine at 10 mg/kg body weight in saline. The mice received the oral and IP administered co-treatments every 24 hrs at the same time of day for 21 days. Accordingly, the four mice treatment groups received: IP: saline/Gavage: PBS (negative control); IP: Fluoxetine/Gavage: PBS (SSRI positive comparator), IP: saline/Gavage: oN14 (oN14 positive comparator); and IP: Fluoxetine/Gavage: oN14 (positive combination comparator). 24 hours after the last administration, the mice were subjected to motility and behavioral testing.

[3] = tested on: 5-HT biosynthetic pathway; assay: In vitro metabolite production by E. coli Nissle strains (LC-MS of culture media); assay type: cell-based; conditions: strains comprising pMUT10-5htp; vs folE WT; FIG. 5F
Method: Strains were grown in a modified M9 medium, containing 1× M9 salts (M6030, Sigma Aldrich), 0.2% (w/v) glucose, 0.1% (w/v) casamino acids (Cat. No. C2000, Teknova), 1 mM MgSO4, 50 μM FeCl3, 0.2% (v/v) 2YT medium (composition see below), and 50 mg/L of L-tryptophan unless stated otherwise. Kanamycin was added at a final concentration of 50 mg/L unless stated otherwise. Three single colonies were picked from each strain, grown in 300 μl medium in 96 deep-well plates and shaken at 250 rpm at 37° C. for 16 hours. The main culture was inoculated by diluting this pre-culture 1:100 into fresh medium, and cells were grown for 24 h under the same conditions. In the case of substrate feeding, TRP and 5-HTP was added to the growth medium in an amount of 100 mg TRP or 5-HTP/L. Afterwards, the culture supernatant was separated from cells using a 0.2 μm pore size filter, and frozen at −20° C. until analysis by LC-MS. […]
Detection of serotonin, tryptamine, tryptophan and 5-HTP were conducted by liquid chromatography mass spectrometry (LC-MS) measurements on a Dionex UltiMate 3000 UHPLC (Fisher Scientific, San Jose, Calif.) connected to an Orbitrap Fusion Mass Spectrometer (Thermo Fisher Scientific, San Jose, Calif.). […] Quantification of the compounds was based on calculations from calibration standards analyzed before and after sets of 24 samples. […]

CNCCC(Oc1ccc(C(F)(F)F)cc1)c1ccccc1 (stereo not drawn) [Fluoxetine]
time of immobility in Forced Swim Test [1]: significantly reduce | distance travelled in the inner zone in OFT [2]: increased | fecal boli produced during the OFT [2]: reduction | time spent in the inner zone in OFT [2]: increased | total number of entries in the inner zone in OFT [2]: increased

B1: mutant GCH1: mutant GTP cyclohydrolase I with T198I substitution encoded by mutated folE gene (protein, UniProt P0A6T5 2-222, looked up, variant T198I)
GTP cyclohydrolase 1: PSLSKEAALVHEALVARGLETPLRPPVHEMDNETRKSLIAGHMTEIMQLLNLDLADDSLMETPHRIAKMYVDEIFSGLDYANFPKITLIENKMKVDEMVTVRDITLTSTCEHHFVTIDGKATVAYIPKDSVIGLSKINRIVQFFAQRPQVQERLTQQILIALQTLLGTNNVAVSIDAVHYCVKARGIRDATSATTTISLGGLFKSSQNTRHEFLRAVRHHN
increase of hydroxylation of tryptophan to 5-hydroxytryptophan catalyzed by human tryptophan 5-hydroxylase [3]: 4 fold
